Measured values from paper PMC6470840 (International Journal of Molecular Sciences, 2019).
“Also recorded” adds a separate entry of the source. Values belong to the compound of their own block, whether it stands above or below them.

Key:
T2DM rats = tested on: T2DM rats; parameters: method as in PMID 24946264; details: injected (intraperitoneal injection); cited from earlier work
Source text: DhHP-6 (Deuterohemin-βAla-His-Thr-Val-Glu-Lys) was designed based on the microperoxidase-11 (MP-11), generated through […]. […] When ...

human plasma = details: 37 °C, up to seven days
[1] = simulated gastric fluid (SGF), pH 1.2, prepared in accordance with the US Pharmacopeia; details: 37 °C, up to 120 min
[2] = blood samples of rats after intravenous injection or intragastric administration; details: male Wistar rats, up to 12 h
[3] = simulated intestinal fluid (SIF), pH 6.8 ± 0.1, prepared in accordance with the US Pharmacopeia; details: 37 °C, up to 120 min
T2DM mice [4] = experiment: T2DM mouse model: pancreas islet histology (H&E); format: in vivo, C57BL/6J mice; details: DhHP-6 60 mg/kg or metformin 250 mg/kg oral, four weeks
Experimental: (§1) At the end of the experiment, the liver and pancreas islets were immediately removed after the mice were sacrificed. The left lobe of the liver was stored at −80 °C and the right lobe of the liver was fixed in 4% paraformaldehyde (Solarbio & Technology Co., Ltd., Beijing, China). After dehydration in a gradient of ethanol concentrations, tissues were paraffin embedded and cut into 5 μm thick sections. Slices were stained with hematoxylin and eosin (H&E) dyes, and sections were mounted in neutral deparaffinized xylene medium for microscopic examination using an Olympus BX53 fluorescence microscope (Olympus, Tokyo, Japan).

T2DM mice [5] = experiment: T2DM mouse model: liver histology (H&E); format: in vivo, C57BL/6J mice; details: DhHP-6 60 mg/kg or metformin 250 mg/kg oral, four weeks
Experimental: as §1

[6] = Experimental: As a peroxidase mimetic, the enzymatic potency of the digestion products of DhHP-6 were assessed using the H2O2–Vitamin C (Vc) double-substrate method. Digestion products of DhHP-6 were diluted to 10 μM. Samples containing no enzyme were used as a control. The reaction system consisted of phosphate buffer solution (PBS) (50 mM, pH 7.4), H2O2 (1 mM), Vc ([…]), and 10 μM DhHP-6. All samples were assayed at 25 °C. The decrease in the absorbance at 290 nm was measured for 30 s by UV–Vis spectrophotometer (Shimadzu, Kyoto, Japan), and measurements were performed prior to the addition of the digestion products and set as 100% relative enzymatic activity.

Compound: deuterohemin-Ala-His-Lys [DhHP-3 (deuterohemin-Ala-His-Lys)]
- symptoms of T2DM rats (T2DM rats): improves the symptoms of T2DM rats

- fragment found [2]: DhHP-3, major
Compound: Deuterohemin-βAla-His-Thr-Val-Glu-Lys
- fragment found (human plasma): DhHP-3 (Deuterohemin-βAla-His-Thr), major
- fragment found [1]: DhHP-5 (Deuterohemin-βAla-His-Thr-Val-Glu), major
- fragment found [3]: DhHP-5; also recorded: DhHP-2 (Deuterohemin-βAla-His)

Compound: CN(C)C(=N)N=C(N)N [metformin, reference compound]
- pancreas islet histology, high dose / metformin (T2DM mice [4]): the islets and vacuolar degeneration improved
- liver histology, high dose / metformin (T2DM mice [5]): lower levels of steatosis were evident and the liver cells became more regular than T2DM mice

Compound: Deuterohemin-βAla-His-Thr [DhHP-3]
- relative enzyme activity of the plasma degradation product [6]: retained the relative enzyme activity of DhHP-6
